Experiments:
[1] = biological target: native cockroach ryanodine receptors (roach femoral muscle membranes) (Periplaneta americana, UniProt A0ABQ8T696); test: Radioligand displacement ([3H]-GN analog Cpd 1) on roach femoral muscle membranes; format: binding; details: displacement of [3H]-Cpd 1, roach muscle membranes, 60 min at 32° C.; read-out: Displacement IC50 (nM) P. americana
Method: Binding to Roach Femoral Muscle Membranes:
Assays were carried out in triplicate.

[2] = biological target: T1, recombinant Drosophila melanogaster ryanodine receptors (expressed in Sf9 cells) (Drosophila melanogaster, UniProt Q24498); format: cell-based; details: receptor expressed in Sf9 cells
T1 construct: expressed in transfected cells
Method: The Spodoptera frugiperda cell line Sf9 used for transfection studies, was maintained in Sf-900 II SFM medium (Invitrogen Life Technologies™, Carlsbad, Calif.) in T-75 flasks incubated at 27° C. It is understood that those skilled in the art might choose alternative cell types such as the Spodoptera frugiperda cell line Sf21 or the Drosophila cell line S2. For the purpose of general handling and propagation, cells were suspended through scraping or agitation and a volume of cell suspension was added to each well of a poly-L-lysine coated 96-well, glass-bottom plate so as to provide 70-80% confluence. Cells were maintained in an incubator at 27° C. until testing.
SF900-II media was used to bring the final volume in the dish to 2 ml and the cells were incubated at 27 degrees C. for 21 h. Following the incubation the media was aspirated from the dish and replaced with 1 ml of SF900-II media pre-warmed to 27 degrees C.
The transient transfection was carried out following an InsectSelect BSD System manual (Invitrogen Life Technologies™, Carlsbad, Calif.). […] The transfection was accomplished by adding the transfection solution drop-wise to the dish and incubating 4 h at room temperature with gentle rocking. […]
(§1) Several drops of a suspension of recombinant Spodoptera frugiperda cell line, Sf9, transiently expressing insect ryanodine receptors were placed on a poly-L-lysine-coated coverslip and allowed to attach. Cells were then rinsed in physiological saline having the following composition (mM): NaCl 130; KCl 5.4; MgCl2 1.2; CaCl2 1.0; NaHCO3 4.2; NaH2P04 7.3; Glucose 10; Sucrose 63; MES 20; pH 6.3. Cells were then bathed in physiological saline containing the calcium sensitive fluoroprobe, Fura-2 AM (2 μM), and Pluronic F127 (0.002%) for 30 min. Cells were rinsed in standard physiological saline for at least 15 min prior to testing. Testing was conducted in standard physiological saline, as the cell lines are devoid of functional voltage-gated calcium channels.
Cell-attached coverslips were placed in a sealed chamber with physiological saline continuously perfused across the cells using a peristaltic pump. Test compounds solubilized in physiological saline were applied by switching the perfusate source.
(§2) For studies involving the stable recombinant Spodoptera frugiperda cell line, Sf9, (other cell lines could also be used such as Sf21, S2, etc) expressing an insect ryanodine receptor from Drosophila melanogaster, or Heliothis virescens (alternatively receptors from other species such as Myzus persicae, Peregrinus maidis, Aphis gossypii, etc) were grown in T75 (or other appropriate sized) flasks in supplemented Grace's insect medium. Cells were maintained in an incubator at 22° C. until testing. Cells were suspension-loaded with the calcium sensitive fluoroprobe, Fura-2 AM (1-2 μM) and Pluronic F127 (0.002%) in culture medium for 30 minutes under agitation. Cells were then centrifuged and the pellet resuspended in physiological saline having the following composition (mM): NaCl 130; KCl 5.4; MgCl2 1.2; CaCl2 1.0; NaHCO3 4.2; NaH2P04 7.3; Glucose 10; Sucrose 63; MES 20; pH 6.3 at approximately 150,000-200,000 cells per well (96-well plate). After a 30 minute equilibration period the cell plate was tested using a Molecular Devices' FlexStation™ system with dual wavelength excitation (340 and 380 nm) and fluorescence emission measured at 510 nm. Test and control samples were added using integrated fluidics and the intracellular calcium monitored over a 2 minute period.

[3] = system: recombinant Heliothis virescens ryanodine receptor (expressed in Sf9 cells); test: Calcium release assay, Sf9 cells transiently or stably expressing Heliothis virescens ryanodine receptor (Fura-2); format: cell-based; details: Cpd 5 3 μM; Sf9 transiently expressing H. virescens ryanodine receptor, 72 hr post-transfection; FIG. 4
Method: SF9 cells were grown at 27 degrees C. in a Corning 125 ml polycarbonate Erlenmeyer flask to a density of 3.1 million cells per ml in SF900-II serum free media (Gibco catalog no. 10902-088, Invitrogen™, Carlsbad, Calif.). One million cells were transferred to one well of a Corning 6-well, flat bottom cell culture dish (Corning Inc., Acton, Mass., catalog no. 3516). SF900-II media was used to bring the final volume in the dish to 2 ml and the cells were incubated at 27 degrees C. for 21 h. Following the incubation the media was aspirated from the dish and replaced with 1 ml of SF900-II media pre-warmed to 27 degrees C.
In the case of the vectors containing the Cre recognition elements, the transfection solution was mixed in a 1.5 ml microfuge tube by combining 5 ug of pHE7 plasmid, 5 ug of pMLS104 Cre plasmid and 0.5 ug of lacZ reporter plasmid, 15 ug of cellfectin reagent (Invitrogen cat. #10362-010) and SF900-II serum free media (Gibco catalog #10902-088, Invitrogen™, Carlsbad, Calif.) in a total volume of 500 ul. The solution was incubated for 1 hour at room temperature just prior to the transfection.
The transfection was accomplished by adding the transfection solution drop-wise to the dish and incubating 4 h at room temperature with gentle rocking. After the 4 h incubation the media was replaced with 2 ml of SF900-II media pre-warmed to 27 degrees C. and the cells were incubated 3 days at 27 degrees C.
as §1, with “Testing was conducted in standard physiological saline, as the cell lines are devoid of functional voltage-gated calcium channels.” left out
For studies involving the stable recombinant Spodoptera frugiperda cell line, Sf9, (other cell lines could also be used such as Sf21, S2, etc) expressing an insect ryanodine receptor from Drosophila melanogaster, or Heliothis virescens (alternatively receptors from other species such as Myzus persicae, Peregrinus maidis, Aphis gossypii, etc) were grown in T75 (or other appropriate sized) flasks in supplemented Grace's insect medium. […] After a 30 minute equilibration period the cell plate was tested using a Molecular Devices' FlexStation™ system with dual wavelength excitation (340 and 380 nm) and fluorescence emission measured at 510 nm. […]

[4] = system: control cells without DNA / wild-type Sf9 cells; test: Calcium response in control Sf9 cells (without DNA, lipid only, non-transfected, wild type); format: cell-based, Spodoptera frugiperda; details: Compound 5 3 μM
Text: as §1
Imaging studies were conducted using a Nikon Diaphot microscope with a 40× oil immersion objective (NA 1.3) Image acquisition and processing was performed using the MetaFluor™ imaging system from Universal Imaging Corporation (West Chester, Pa.) Calcium calibration was carried out using the Grynkiewicz equation with a dissociation constant (Kd) of 145 nM for Fura-2 (Grynkiewicz et al., 1985). Cell-attached coverslips were placed in a sealed chamber with physiological saline continuously perfused across the cells using a peristaltic pump. Test compounds solubilized in physiological saline were applied by switching the perfusate source.
as §2

With `Cc1cccc(C(=O)NC(C)C)c1NC(=O)c1cc(C(F)(F)F)nn1-c1ncccc1Cl` [Cpd 5, 1-(3-Chloro-2-pyridinyl)-N-[2-methyl-6-[[(1-methylethyl)amino]carbonyl]phenyl]-3-(trifluoromethyl)-1H-pyrazole-5-carboxamide] the IC50 [1] was less than 300 nM, the “Calcium Release Threshold (nM) D. melanogaster” value [2] was less than 300 nM and the “cytosolic [Ca2+] response” value [3] was “increase in cytosolic [Ca^2+]”. The “calcium response in control cells without DNA” value [4] was “No significant calcium responses”.

From US7655395B2, “Isolation and use of ryanodine receptors” (E.I. du Pont de Nemours and Company, priority 2002, dated 2010)
